Measured values taken from US7649113B2, “Mono, di and tri cyclic compounds useful for lowering IgE concentrations” (The Research Foundation of State University of New York, priority 2003, dated 2010).

Assays:
IgE production [1] = test: Suppression of human IgE production in vitro; assay type: cell-based
[2] = system: PBMC (peripheral blood mononuclear cells); conditions: patient PBMC; dose dependent manner; cited from earlier work
[3] = system: normal mouse spleen cells; conditions: cited from earlier work
dogs = conditions: cited from earlier work
mice = conditions: cited from earlier work
IgE production [4] = test: Suppression of human IgE production in vivo
IgE production [5] = test: Suppression of murine IgE production in vivo
[6] = system: allergic steroid dependent asthmatic patients; conditions: oral administration; cited from earlier work
[7] = system: human whole blood cultures; conditions: physiological doses; cited from earlier work
[8] = system: inducible nitric oxide synthase (iNOS); conditions: murine macrophages; cited from earlier work
[9] = system: rheumatoid arthritis (RA) patients; conditions: cited from earlier work

Structure (SMILES) | human IgE production (IgE production [1]) | anti-CD40 rhIL-4 mediated in vitro induction of IgE responses [2] | PHA/IL-4 mediated IgE response [3] | severity of osteoarthritis (OA) (dogs) | ability to mount delayed-type hypersensitivity responses (mice) | human IgE production (IgE production [4]) | murine IgE production (IgE production [5]) | oral corticosteroid requirements [6] | symptoms (A.M. and P.M.) [6] | mitotic responses to phytohemagglutinin [7] | inducible nitric oxide synthase (iNOS) expression [8] | therapy for early RA ([9]; RA patients) | side effects ([9]; mild and moderate RA patients)
C[C@H]1c2cccc(O)c2C(=O)C2=C(O)[C@]3(O)C(=O)C(C(N)=O)=C(O)[C@@H](N(C)C)[C@@H]3[C@@H](O)[C@@H]21 [doxycycline] | suppresses | suppress | suppresses | reduced | inhibit |  |  |  |  |  |  |  | 
CN(C)c1ccc(O)c2c1C[C@H]1C[C@H]3[C@H](N(C)C)C(=O)C(C(N)=O)=C(O)[C@@]3(O)C(=O)C1=C2O [minocycline] | suppresses | suppress |  | reduced |  | suppresses | suppresses | decreased | improved their symptoms | inhibits | inhibits | appears to be an effective therapy | no side effects
